Measured values reported in US6414019B1, “Synergistic mixtures of selected amino acids” (Agrogene Ltd., priority 1997, dated 2002).
Converted amounts (≈) assume the structure as drawn. “And” between values parts separate entries of the source, which are not always exact repeats. Identical values can stand only once.

Columns and labels:
[1] = test system: Pseudoperonospora cubensis (resistance to metalaxyl); settings: in vivo
[2] = test system: Peronospora tabacina R strain; assay: Control of downy mildew in tobacco, fungal isolate R (sporulation inhibition); format: in vivo
[3] = test system: Peronospora tabacina S strain; assay: Control of downy mildew in tobacco, fungal isolate S (sporulation inhibition); format: in vivo
Plasmopara viticola = settings: in vivo
[4] = 50 mg/L active ingredient, fungal isolate R, Table 28
[5] = 16 mg/L active ingredient, fungal isolate R, Table 29
[6] = 62 mg/L active ingredient, fungal isolate R, Table 29
[7] = 100 mg/L active ingredient, fungal isolate R, Table 30
[8] = 200 mg/L active ingredient, fungal isolate R, Table 30
[9] = 250 mg/L active ingredient, fungal isolate R, Table 29
[10] = 400 mg/L active ingredient, fungal isolate R, Table 30
[11] = 0.5 mg/L active ingredient, tobacco, fungal isolate S (Table 31)
[12] = 5 mg/L active ingredient, tobacco, fungal isolate S (Table 31)
[13] = 50 mg/L active ingredient, tobacco, fungal isolate S (Table 31)

Compound: COCC(=O)N(c1c(C)cccc1C)[C@H](C)C(=O)OC (single isomer, unassigned) [Metalaxyl Single Isomer]
- ED90 [1]: 844 mg/L (≈ 3020 µM)
- Percent Disease Control [1]: 0% and 8%

Compound: CO/C=C(/C(=O)OC)c1ccccc1Oc1cc(Oc2ccccc2C#N)ncn1 [AZOXYSTROBINE, Azoxystrobin]
- Percent Disease Control ([2]; 5 mg/L active ingredient, fungal isolate R, Table 28): 81%
- Percent Disease Control ([2]; 10 mg/L active ingredient, fungal isolate R, Table 28): 81%
- Percent Disease Control ([2]; 25 mg/L active ingredient, fungal isolate R, Table 28): 81%
- Percent Disease Control [2, 4]: 93%
- Percent Disease Control ([2]; dose not printed (value stands in the Ratio column), fungal isolate R, Table 28): 13%
- ED90 ([2]; fungal isolate R, Table 28): 27 mg/L (≈ 66.9 µM)

Compound: CC(N)CC(=O)O (stereo not drawn) [BABA, DLβ-amino-butanoic acid]
- Percent Disease Control [2, 5]: 3%
- Percent Disease Control [2, 4]: 0%
- Percent Disease Control [2, 6]: 27%
- Percent Disease Control ([2]; 100 mg/L active ingredient, fungal isolate R, Table 28): 13%
- Percent Disease Control [2, 7]: 37%
- Percent Disease Control ([2]; 200 mg/L active ingredient, fungal isolate R, Table 28): 100%
- Percent Disease Control [2, 8]: 62%
- Percent Disease Control [2, 9]: 51%
- Percent Disease Control [2, 10]: 100%
- Percent Disease Control [3, 11]: 0%
- Percent Disease Control [3, 12]: 27%
- Percent Disease Control [3, 13]: 59%
- ED90 ([3]; in vivo): 78 mg/L (≈ 756 µM)
- ED90 (Plasmopara viticola): 38 mg/L and 33 mg/L and 36 mg/L and 44 mg/L

Compound: CSC(=O)c1cccc2nnsc12 [BION, Acibenzolar-s-methyl]
- Percent Disease Control [2, 5]: 76%
- Percent Disease Control [2, 6]: 76%
- Percent Disease Control [2, 7]: 37%
- Percent Disease Control [2, 8]: 50%
- Percent Disease Control [2, 9]: 99%
- Percent Disease Control [2, 10]: 80%
- ED90 ([2]; fungal isolate R, Table 29): 88 mg/L (≈ 418 µM)
- ED90 ([2]; fungal isolate R, Table 30): 443 mg/L (≈ 2110 µM)
- Percent Disease Control [3, 11]: 54%
- Percent Disease Control [3, 12]: 76%
- Percent Disease Control [3, 13]: 85%
- ED90 ([3]; tobacco, fungal isolate S (Table 31)): 52 mg/L (≈ 247 µM)
- ED90 (Plasmopara viticola): 6 mg/L (≈ 28.5 µM)

Compound: [Cu+2].[OH-].[OH-] [Cu(OH)2, copper hydroxide]
- ED90 [1]: 304 mg/L
- Percent Disease Control [1]: 67% and 77% and 80%

Compound: CCNC(=O)NC(=O)/C(C#N)=N/OC [Cymoxanil]
- Percent Disease Control [2, 7]: 25%
- Percent Disease Control [2, 8]: 25%
- Percent Disease Control [2, 10]: 62%
- ED90 ([2]; in vivo): 596 mg/L (≈ 3010 µM)

Compound: COc1ccc(C(=CC(=O)N2CCOCC2)c2ccc(Cl)cc2)cc1OC [DMN, DIMETHOMORPH]
- Percent Disease Control [1]: 32% Control
- ED90 (Plasmopara viticola): 19 mg/L (≈ 49 µM)

Compound: O=C1c2ccccc2C(=O)N1SC(Cl)(Cl)Cl [FOLPET, Folpet]
- ED90 [1]: 403 mg/L (≈ 1360 µM)

Compound: Cc1ccc(C(C)NC(=O)[C@@H](NC(=O)OC(C)C)C(C)C)cc1 (stereo partly shown) [Fencaramid]
- ED90 [1]: 19 mg/L (≈ 59.3 µM)
- Percent Disease Control [1]: 78% and 83% and 95% and 100%

Compound: COCC(=O)N(c1c(C)cccc1C)[C@H](C)C(=O)OC [RIDOMILGOLD]
- Percent Disease Control [2, 5]: 49%
- Percent Disease Control [2, 6]: 37%
- Percent Disease Control [2, 7]: 20%
- Percent Disease Control [2, 8]: 35%
- Percent Disease Control [2, 9]: 58%
- Percent Disease Control [2, 10]: 42%
- ED90 ([2]; fungal isolate R, Table 29): 416 mg/L (≈ 1490 µM)
- ED90 ([2]; fungal isolate R, Table 30): >1000 mg/L

Compound: Mancozeb
- ED90 [1]: 315 mg/L and 167 mg/L
